Assay results taken from ChEMBL document CHEMBL4251621, “Design, synthesis and QSAR study of novel isatin analogues inspired Michael acceptor as potential anticancer compounds” (Eur J Med Chem, 2018).
Activity calls are given as the source filed them. The calls are words filed in the database; no cut-off is given here.

How the values were obtained:
[1] = test system: NCI-H460; assay: Cytotoxicity against human NCI-H460 cells assessed as cell growth inhibition after 72 hrs by MTT assay; format: functional, cell-based; conditions: NCI-H460, 72 h
[2] = test system: SGC-7901; assay: Cytotoxicity against human SGC7901 cells assessed as cell growth inhibition after 72 hrs by MTT assay; format: functional, cell-based; conditions: SGC-7901, 72 h
[3] = test system: BGC-823; assay: Cytotoxicity against human BGC823 cells assessed as cell growth inhibition after 72 hrs by MTT assay; format: functional, cell-based; conditions: BGC-823, 72 h
[4] = test system: NCI-H460; assay: Growth inhibition of human NCI-H460 cells assessed as reduction in cell viability at 5 to 10 uM incubated for 24 to 72 hrs by MTT assay; format: functional, cell-based
[5] = test system: Mus musculus; assay: Toxicity in BALB/C nu nude mouse xenografted with human NCI-H460 cells assessed as histopathological changes in lung at 15 mg/kg, ip administered everyday for 15 days by hematoxylin and eosin staining based light microscopic analysis; format: organism-based; conditions: in vivo, 360 h
[6] = test system: NCI-H460; assay: Induction of apoptosis in tumor of human NCI-H460 cells xenografted in BALB/C nu nude mouse assessed as downregulation of bcl2 expression at 15 mg/kg, ip administered everyday for 15 days by Western blot analysis; format: functional, organism-based
[7] = test system: Mus musculus; assay: Toxicity in BALB/C nu nude mouse xenografted with human NCI-H460 cells assessed as histopathological changes in liver at 15 mg/kg, ip administered everyday for 15 days by hematoxylin and eosin staining based light microscopic analysis; format: organism-based; conditions: in vivo, 360 h
[8] = test system: NCI-H460; assay: Anti-migratory activity against human NCI-H460 cells at 20 uM incubated for 48 hrs by wound healing assay; format: functional, cell-based
[9] = test system: NCI-H460; assay: Anti-growth activity against human NCI-H460 cells assessed as reduction in colony formation at 20 uM after 18 hrs by crystal violet-based colony forming assay; format: functional, cell-based
[10] = test system: NCI-H460; assay: Anti-growth activity against human NCI-H460 cells assessed as reduction in colony formation at 10 uM after 48 hrs by crystal violet-based colony forming assay; format: functional, cell-based
[11] = test system: NCI-H460; assay: Anti-migratory activity against human NCI-H460 cells at 10 uM incubated for 48 hrs by wound healing assay; format: functional, cell-based
[12] = test system: Mus musculus; assay: Toxicity in BALB/C nu nude mouse xenografted with human NCI-H460 cells assessed as weight loss at 15 mg/kg, ip administered everyday for 15 days measured every 2 days; format: organism-based; conditions: in vivo
[13] = test system: NCI-H460; assay: Antitumor activity against human NCI-H460 cells xenografted in BALB/C-nu nude mouse assessed as reduction in tumor growth at 15 mg/kg, ip administered every day for 15 days; format: functional, organism-based
[14] = test system: Mus musculus; assay: Toxicity in BALB/C nu nude mouse xenografted with human NCI-H460 cells assessed as induction of abnormal behavior at 15 mg/kg, ip administered everyday for 15 days; format: organism-based; conditions: in vivo, 360 h
[15] = test system: NCI-H460; assay: Cell cycle arrest in human NCI-H460 cells assessed as accumulation at G2/M phase at 5 to 20 uM after 48 hrs by propidium iodide staining-based flow cytometry; format: functional
[16] = test system: NCI-H460; assay: Anti-migratory activity against human NCI-H460 cells incubated for 48 hrs by wound healing assay; format: functional, cell-based
[17] = test system: NCI-H460; assay: Anti-growth activity against human NCI-H460 cells assessed as reduction in colony formation after 18 hrs by crystal violet-based colony forming assay; format: functional, cell-based

## O=C1Nc2ccccc2/C1=C\C(=O)c1ccccc1F
[1]
  IC50: 8.5 µM
[2]
  IC50: 17.4 µM
[3]
  IC50: 11.8 µM

## COc1ccccc1C(=O)/C=C1/C(=O)Nc2ccccc21
[1]
  IC50: 10.2 µM
[2]
  IC50: 16.3 µM
[3]
  IC50: 10.2 µM

## COc1cc(C(=O)/C=C2/C(=O)Nc3ccccc32)cc(OC)c1OC
[1]
  IC50: 10.9 µM
[2]
  IC50: 18.3 µM
[3]
  IC50: 13.9 µM

## CC(=O)Nc1cccc(C(=O)/C=C2/C(=O)Nc3ccccc32)c1
[1]
  IC50: 12.3 µM
[2]
  IC50: 14.1 µM
[3]
  IC50: 9.1 µM

## COc1cc(/C=C/C(=O)CC(=O)/C=C/c2ccc(O)c(OC)c2)ccc1O [CURCUMIN]
[4]
  growth inhibition (GI): Active
[5]
  Activity: Non-Toxic
[6]
  Activity: Active
[7]
  Activity: Non-Toxic
[8]
  Activity: Active
[9]
  Activity: Active
[2]
  IC50: 26.2 µM
[3]
  IC50: 19.5 µM

## Nc1c(Cl)cc(C(=O)/C=C2/C(=O)Nc3ccccc32)cc1Cl
[1]
  IC50: 6.2 µM
[2]
  IC50: 11.9 µM
[3]
  IC50: 8.5 µM

## COc1ccc(C(=O)/C=C2/C(=O)Nc3ccccc32)cc1
[1]
  IC50: 5.5 µM
[2]
  IC50: 23.2 µM
[3]
  IC50: 19.8 µM

## O=C1Nc2ccccc2/C1=C\C(=O)c1ccc(Cl)cc1
[1]
  IC50: 6.5 µM
[2]
  IC50: 8.5 µM
[3]
  IC50: 6.9 µM

## O=C1Nc2ccccc2/C1=C\C(=O)c1ccc(Cl)c(Cl)c1
[1]
  IC50: 13.7 µM
[2]
  IC50: 17.8 µM
[3]
  IC50: 13.2 µM

## O=C1Nc2ccccc2/C1=C\C(=O)c1cccc(Cl)c1
[1]
  IC50: 9.8 µM
[2]
  IC50: 8.4 µM
[3]
  IC50: 7.7 µM

## COc1ccc(C(=O)/C=C2/C(=O)Nc3ccccc32)c(OC)c1
[1]
  IC50: 5.4 µM
[2]
  IC50: 11.5 µM
[3]
  IC50: 9.2 µM

## O=C1Nc2ccccc2/C1=C\C(=O)c1ccc([N+](=O)[O-])cc1
[1]
  IC50: 18.4 µM
[2]
  IC50: 18.2 µM
[3]
  IC50: 14.3 µM

## COc1cc(O)c(CC=C(C)C)c(O)c1C(=O)/C=C/c1ccc(O)cc1 [XANTHOHUMOL]
[4]
  growth inhibition (GI): Active
[10]
  Activity: Active
[1]
  IC50: 6.9 µM
[2]
  IC50: 10 µM
[11]
  Activity: Active
[3]
  IC50: 7.8 µM

## CC(C)C(=O)Nc1cccc(C(=O)/C=C2/C(=O)Nc3ccccc32)c1
[1]
  IC50: 9.7 µM
[2]
  IC50: 8.6 µM
[3]
  IC50: 6.2 µM

## O=C1Nc2ccccc2/C1=C\C(=O)c1ccccc1Cl
[1]
  IC50: 7.7 µM
[2]
  IC50: 12.8 µM
[3]
  IC50: 9.1 µM

## O=C1Nc2ccccc2/C1=C\C(=O)c1cc(Cl)ccc1Cl
[1]
  IC50: 61.6 µM
[2]
  IC50: 56.3 µM
[3]
  IC50: 53.7 µM

## O=C1Nc2ccccc2/C1=C\C(=O)c1ccccc1
[1]
  IC50: 10.4 µM
[2]
  IC50: 9.3 µM
[3]
  IC50: 13.2 µM

## Nc1cccc(C(=O)/C=C2/C(=O)Nc3ccccc32)c1
[1]
  IC50: 20.4 µM
[2]
  IC50: 14.4 µM
[3]
  IC50: 29.9 µM

## O=C1Nc2ccccc2/C1=C\C(=O)c1ccc(Br)cc1
[1]
  IC50: 11.5 µM
[2]
  IC50: 10.2 µM
[3]
  IC50: 9 µM

## C=CC(=O)Nc1cccc(C(=O)/C=C2/C(=O)Nc3ccccc32)c1
[4]
  Activity: Dose-dependent effect
[4]; TDE = time-dependent effect
  growth inhibition (GI): Tde
[12]
  Activity: Non-Toxic
[13]
  TGI: Active
[5]
  Activity: Non-Toxic
[14]
  Activity: Non-Toxic
[6]
  Activity: Active
[7]
  Activity: Non-Toxic
[15]
  Activity: Active
[16]
  Activity: Dose-dependent effect
[1]
  IC50: 3.2 µM
[17]
  Activity: Dose-dependent effect
[2]
  IC50: 5.7 µM
[3]
  IC50: 3.6 µM

## CCC(=O)Nc1cccc(C(=O)/C=C2/C(=O)Nc3ccccc32)c1
[1]
  IC50: 10.3 µM
[2]
  IC50: 11.5 µM
[3]
  IC50: 7.5 µM

## O=C1Nc2ccccc2/C1=C\C(=O)c1ccccc1Br
[1]
  IC50: 11 µM
[2]
  IC50: 13.1 µM
[3]
  IC50: 9.5 µM

## O=C1Nc2ccccc2/C1=C\C(=O)c1cc(F)cc(F)c1
[1]
  IC50: 13.3 µM
[2]
  IC50: 17.6 µM
[3]
  IC50: 15.7 µM

## O=C1Nc2ccccc2/C1=C\C(=O)c1ccc(F)cc1
[1]
  IC50: 7.5 µM
[2]
  IC50: 12.4 µM
[3]
  IC50: 11.1 µM
